Experimental data from patent US4294843A, “Anti-protozoal oxadiazole derivatives” (Burroughs Wellcome Co., priority 1978, dated 1981).
Counter-ions that a name gives are not always drawn.

Key:
P. berghei = assay: percentage inhibition of P. berghei (blood parasitaemia) in mice, seven oral doses; type: in vivo; settings: Plasmodium berghei, 96 h, parasitaemia on fourth day; for inhibition in vivo at 10 mg/kg: 7 × 10 mg/kg oral; for inhibition in vivo at 100 mg/kg: 7 × 100 mg/kg oral
Excerpt: Groups of five mice were inoculated intraperitoneally with the normal strain of P. berghei. The mice on test received seven oral doses of drug beginning on the afternoon of the day of infection then twice a day for the following three days. Blood parasitaemias were estimated on the fourth day and compared with those of the untreated controls.
The results are given in Table 1, the results being expressed as percentage inhibition of P. berghei.

[1] = LD50 in female rats, oral by gavage; settings: rat, in vivo, 10% w/v suspension in corn oil
Protocol: 1. The LD50 of the compound of Example 3, both as the free base and the hydrochloride salt was determined in female rats by standard techniques the compound being administered as a 10% w/v suspension in corn oil orally by gavage.

SMILES | inhibition in vivo at 10 mg/kg (P. berghei) [%] | inhibition in vivo at 100 mg/kg (P. berghei) [%] | LD50 [1] [mg/kg]
CN(C)c1ccccc1SCc1ncon1 [Example 1, 3-(2-Dimethylaminophenylthiomethyl)-1,2,4-oxadiazole] | 65 | 100 | –
CN(C)c1ccccc1SCc1noc(-c2ccccc2)n1 [Example 2, 3-(2-Dimethylaminophenylthiomethyl)-5-phenyl-1,2,4-oxadiazole] | – | 83 | –
Cl.Nc1ccccc1SCc1ncon1 [Example 3 - HCl salt, 3-(2-Aminophenylthiomethyl)-1,2,4-oxadiazole hydrochloride] | – | – | 63
CNc1ccccc1SCc1ncon1 [Example 4, 3-(2-Methylaminophenylthiomethyl)-1,2,4-oxadiazole] | 67 | 97 | –
Cc1ccc(SCc2ncon2)c(N)c1 [Example 6, 3-(2-Amino-4-methylphenylthiomethyl)-1,2,4-oxadiazole] | 55 | 99 | –
Cc1ccc(N)c(SCc2ncon2)c1 [Example 7, 3-(2-Amino-5-methylphenylthiomethyl)-1,2,4-oxadiazole] | 46 | 99 | –
Nc1cc(Cl)ccc1SCc1ncon1 [Example 8, 3-(2-Amino-4-chlorophenylthiomethyl)-1,2,4-oxadiazole] | 89 | 100 | –
Nc1cccc(Cl)c1SCc1ncon1 [Example 9, 3-(2-Amino-6-chlorophenylthiomethyl)-1,2,4-oxadiazole] | 32 | 89.6 | –
Nc1cc(Br)ccc1SCc1ncon1 [Example 10, 3-(2-Amino-4-bromophenylthiomethyl)-1,2,4-oxadiazole] | 85 | 99 | –
Nc1ccccc1SCc1noc(-c2ccc(Cl)cc2)n1 [Example 11, 3-(2-Aminophenylthiomethyl)-5-(4-chlorophenyl)-1,2,4-oxadiazole] | 54 | 99 | –
Nc1ccccc1SCc1noc(CSc2ccccc2N)n1 [Example 13, 3,5-Di-(2-aminophenylthiomethyl)-1,2,4-oxadiazole] | 77 | – | –
Nc1ccccc1SCc1noc(-c2ccccc2)n1 [Example 14, 3-(2-Aminophenylthiomethyl)-5-phenyl-1,2,4-oxadiazole] | 77 | 100 | –
Cc1nc(CSc2ccccc2N)no1 [Example 15, 3-(2-Aminophenylthiomethyl)-5-methyl-1,2,4-oxadiazole hydrochloride] | 4 | 86 | –
Nc1cc(F)ccc1SCc1ncon1 [Example 16, 3-(2-Amino-4-fluorophenylthiomethyl)-1,2,4-oxadiazole] | 81 | 100 | –
COc1ccc(SCc2ncon2)c(N(C)C)c1 [Example 17, 3-(2-Dimethylamino-4-methoxyphenylthiomethyl)-1,2,4-oxadiazole] | – | 62 | –
CN(C)c1cc(Cl)ccc1SCc1ncon1 [Example 18, 3-(4-Chloro-2-dimethylaminophenylthiomethyl)-1,2,4-oxadiazole] | – | 95 | –
CCOC(=O)Nc1ccccc1SCc1ncon1 [Example 19, 3-(2-Ethoxycarbonylaminophenylthiomethyl)-1,2,4-oxadiazole] | 52 | 99.9 | –
COC(=O)Nc1ccccc1SCc1ncon1 [Example 20, 3-(2-methoxycarbonylaminophenylthiomethyl)-1,2,4-oxadiazole] | – | 97.5 | –
O=C(Nc1ccccc1SCc1ncon1)OCc1ccccc1 [Example 21, 3-(2-Benzyloxycarbonylaminophenylthiomethyl)-1,2,4-oxadiazole] | 68 | 100 | –
CC(=O)Nc1ccccc1SCc1ncon1 [Example 23, 3-(2-Acetylaminophenylthiomethyl)-1,2,4-oxadiazole] | 38 | 100 | –
O=C(Nc1ccccc1SCc1ncon1)c1ccc(Cl)cc1 [Example 25, 3-[2-(4-chlorobenzamido)phenylthiomethyl]-1,2,4-oxadiazole] | 64 | 99.9 | –
O=C(Nc1ccccc1SCc1ncon1)c1ccccc1 [Example 26, 3-(2-Benzamidophenythiomethyl)-1,2,4-oxadiazole] | 52 | – | –
COc1ccc(C(=O)Nc2ccccc2SCc2ncon2)cc1 [Example 27, 3-[2-(4-Methoxybenzamido)phenylthiomethyl]-1,2,4-oxadiazole] | 73 | 85 | –

SMILES | inhibition in vivo at 10 mg/kg (P. berghei) [%] | inhibition in vivo at 100 mg/kg (P. berghei) [%] | LD50 [1] [mg/kg]
CC(C)(C)C(=O)Nc1ccccc1SCc1ncon1 [Example 28, 3-(2-Trimethylacetamidophenylthiomethyl)1,2,4-oxadiazole] | – | 53 | –
O=C(Nc1ccccc1SCc1ncon1)c1ccco1 [Example 29, 3-(2-Furanoylaminophenylthiomethyl)1,2,4-oxadiazole] | 47 | 100 | –
O=C(Nc1ccccc1SCc1ncon1)c1cccs1 [Example 30, 3-(Thiophene-2-carbonylaminophenylthiomethyl)1,2,4-oxadiazole] | 59 | – | –
CS(=O)(=O)Nc1ccccc1SCc1ncon1 [Example 31, 3-(2-Methylsulphonamidophenylthiomethyl)-1,2,4-oxadiazole] | 33 | – | –
Cc1ccc(S(=O)(=O)Nc2ccccc2SCc2ncon2)cc1 [Example 32, 3-[2-(p-toluenesulphonamido)phenylthiomethyl]-1,2,4-oxadiazole] | – | 43 | –
S=C(Nc1ccccc1)Nc1ccccc1SCc1ncon1 [Example 33, N-[2-(1,2,4-oxadiazol-3-yl-methylthio)phenyl]-N^1-phenylthiourea] | 10 | – | –
O=C(Nc1ccccc1SCc1ncon1)NC1CCCCC1 [Example 35] | – | 39 | –
O=[N+]([O-])c1ccc(Oc2ccc(NC(=S)Nc3ccccc3SCc3ncon3)cc2)cc1 [Example 36, N-[2-(1,2,4-oxadiazol-3-yl-methylthio)phenyl]-N^1-4-(4-nitrophenyloxy)phenyl thiourea] | – | 19 | –
O=[N+]([O-])c1ccc(Sc2ccc(NC(=S)Nc3ccccc3SCc3ncon3)cc2)cc1 [Example 37, N-[2-(1,2,4-oxadiazol-3-yl-methylthio)phenyl]-N^1-4-(4-nitrophenylthio)phenyl thiourea] | 50 | 22 | –
COc1ccc(C=Nc2ccccc2SCc2ncon2)cc1OC [Example 38, 3-[2-(3,4-Dimethoxybenzylideneamino)phenylthiomethyl]-1,2,4-oxadiazole] | 9 | 36 | –
COc1ccc(C=Nc2ccccc2SCc2ncon2)cc1 [Example 39, 3-[2-(4-Methoxybenzylideneamino)phenylthiomethyl]-1,2,4-oxadiazole] | 73 | 99.7 | –
Clc1ccccc1C=Nc1ccccc1SCc1ncon1 [Example 40, 3-[2-(2-Chlorobenzylideneamino)phenylthiomethyl]-1,2,4-oxadiazole] | 82 | 100 | –
COc1cc(C=Nc2ccccc2SCc2ncon2)cc(OC)c1OC [Example 41, 3-[2-(3,4,5-Trimethoxybenzylideneamino)phenylthiomethyl]-1,2,4-oxadiazole] | – | 100 | –
Clc1ccc(CNc2ccccc2SCc2ncon2)cc1 [Example 42, 3-[2-(4-Chlorobenzylamino)phenylthiomethyl]1,2,4-oxadiazole] | 93 | 100 | –
OC(CNc1ccccc1SCc1ncon1)COc1ccccc1 (centres unmarked) [Example 43, 2-Hydroxy-1-[2-(1,2,4-oxadiazol-3-ylmethylthio)anilino]-3-phenoxypropane] | 24 | 60 | –
O=[N+]([O-])c1ccccc1SNc1ccccc1SCc1ncon1 [Example 44, 3-[2-(2-Nitrophenylsulphenylamino)phenyl]thiomethyl-1,2,4-oxadiazole] | – | 27 | –
CCN(CC)c1ccccc1SCc1ncon1 [Example 45, 3-(2-Diethylaminophenylthiomethyl)-1,2,4-oxadiazole] | 84 | 100 | –
CCN(C)c1ccccc1SCc1ncon1 [Example 46, 3-[2-(N-ethyl-N-methyl)aminophenylthiomethyl]1,2,4-oxadiazole] | – | 98 | –
CN(C)c1ccccc1SCc1noc(CSc2ccc(Cl)cc2)n1 [Example 48, 5-(4-chlorophenylthiomethyl)-3-(2-dimethylaminophenylthiomethyl)-1,2,4-oxadiazole] | 22 | 88 | –
Nc1ccccc1SCC1=NOCN1 [Example 51, 3-(2-Aminophenylthiomethyl)-4,5-dihydro-1,2,4-oxadiazole] | 63 | – | –
Nc1cc(Cl)ccc1SCC1=NOCN1 [Example 52, 3-(2-Amino-4-chlorophenylthiomethyl)-4,5-dihydro-1,2,4-oxadiazole] | 95 | – | –
CN(C)c1ccccc1SCC1=NOCN1 [Example 53, 3-(2-Dimethylaminophenylthiomethyl)-4,5-dihydro-1,2,4-oxadiazole] | 43 | – | –
CN(C)c1ccccc1SCC(N)=NO [Example 56, 2-(2-Dimethylaminophenylthio)acetamidoxime] | 100 | – | –
